According to ChEMBL document CHEMBL3132751, “Crafting precise multivalent architectures” (Medchemcomm, 2013):

Molecular target: T1, CD209 antigen (Homo sapiens, UniProt Q9NNX6)
T1 sequence (Q9NNX6 whole entry): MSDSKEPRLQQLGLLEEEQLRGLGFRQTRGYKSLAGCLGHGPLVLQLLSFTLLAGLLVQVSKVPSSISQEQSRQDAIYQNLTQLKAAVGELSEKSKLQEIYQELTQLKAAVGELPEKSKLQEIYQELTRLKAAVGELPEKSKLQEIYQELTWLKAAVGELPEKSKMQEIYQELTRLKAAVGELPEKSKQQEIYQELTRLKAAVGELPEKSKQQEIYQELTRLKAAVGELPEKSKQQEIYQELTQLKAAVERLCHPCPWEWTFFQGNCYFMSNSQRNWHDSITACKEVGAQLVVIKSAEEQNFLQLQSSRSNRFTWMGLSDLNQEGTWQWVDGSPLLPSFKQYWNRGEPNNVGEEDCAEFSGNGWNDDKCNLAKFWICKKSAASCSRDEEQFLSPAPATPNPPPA
Assay: Binding affinity to DC-SIGN (unknown origin)

Kd	Structure (SMILES)
8.7 mM	CC(=O)N[C@H](C=O)[C@@H](O)[C@H](O)[C@H](O)CO
6.7 mM	C[C@H](O)[C@@H](O)[C@@H](O)[C@H](O)C=O [L-FUCOSE]
